Measured values taken from PubChem BioAssay AID256 (DTP/NCI, 2004).
Several values for one entry are separate records, joined by “and”; a condition that tells them apart may be missing. Equal entries are not always repeated. Toxic doses and inconclusive results are not listed.

System: CD2F1 mice, L1210 leukemia ip, survival T/C
Experiment: NCI In Vivo Anticancer Drug Screen. Data for tumor model L1210 Leukemia (intraperitoneal) in CD2F1 (CDF1) mice
Details: higher = longer survival
In short: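 Each value reflects a quotient of treated over vehicle control outcomes in mice with a transplanted tumor.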

[1] = endpoint: mean survival time, dose: 100.0 mg/kg/injection, schedule: Q01DX009 (ip), vehicle: saline with Tween-80
[2] = endpoint: mean survival time, dose: 200.0 mg/kg/injection, schedule: Q01DX009 (ip), vehicle: saline with Tween-80
[3] = endpoint: mean survival time, dose: 25.0 mg/kg/injection, schedule: Q04DX003 (ip), vehicle: saline
[4] = endpoint: mean survival time, dose: 100.0 mg/kg/injection, schedule: Q04DX003 (ip), vehicle: saline
[5] = endpoint: mean survival time, dose: 100.0 mg/kg/injection, schedule: Q04DX003 (ip), vehicle: saline with Tween-80
[6] = endpoint: mean survival time, dose: 200.0 mg/kg/injection, schedule: Q04DX003 (ip), vehicle: saline with Tween-80
[7] = endpoint: mean survival time, dose: 400.0 mg/kg/injection, schedule: Q04DX003 (ip), vehicle: saline with Tween-80

OCCN(Cc1ccccc1)C(c1ccccc1)c1ccccc1
T/C (endpoint: mean survival time, dose: 100.0 mg/kg/injection, schedule: Q04DX003 (ip), vehicle: Klucel (hydroxypropylcellulose) (HPC)): 91 % of control
T/C (endpoint: mean survival time, dose: 200.0 mg/kg/injection, schedule: Q04DX003 (ip), vehicle: Klucel (hydroxypropylcellulose) (HPC)): 97 % of control
T/C (endpoint: mean survival time, dose: 400.0 mg/kg/injection, schedule: Q04DX003 (ip), vehicle: Klucel (hydroxypropylcellulose) (HPC)): 97 % of control

CC(C)(CC(=O)Nc1ccccc1)C(=O)O
T/C [1]: 98 % of control and 100 % of control
T/C [2]: 96 % of control and 100 % of control
T/C (endpoint: mean survival time, dose: 400.0 mg/kg/injection, schedule: Q01DX009 (ip), vehicle: saline with Tween-80): 96 % of control and 102 % of control

O=c1[nH]cc(Cc2cccc3ccccc23)c(=O)[nH]1
T/C (endpoint: mean survival time, dose: 100.0 mg/kg/injection, schedule: Q01DX001 (ip), vehicle: saline with Tween-80): 92 % of control
T/C (endpoint: mean survival time, dose: 200.0 mg/kg/injection, schedule: Q01DX001 (ip), vehicle: saline with Tween-80): 94 % of control
T/C (endpoint: mean survival time, dose: 400.0 mg/kg/injection, schedule: Q01DX001 (ip), vehicle: saline with Tween-80): 86 % of control

CN(C)/C=N/N1CCCCCC1
T/C [3]: 103 % of control
T/C (endpoint: mean survival time, dose: 50.0 mg/kg/injection, schedule: Q04DX003 (ip), vehicle: saline): 97 % of control
T/C [4]: 96 % of control

O=C1Nc2ccccc2C1c1ccccc1 (stereo unspecified)
T/C (endpoint: mean survival time, dose: 100.0 mg/kg/injection, schedule: Q04DX002 (ip), vehicle: saline with Tween-80): 97 % of control
T/C (endpoint: mean survival time, dose: 200.0 mg/kg/injection, schedule: Q04DX002 (ip), vehicle: saline with Tween-80): 90 % of control

CC1=CC(=O)OC1CC(=O)O (stereo unspecified)
T/C (endpoint: mean survival time, dose: 50.0 mg/kg/injection, schedule: Q01DX009 (ip), vehicle: saline): 97 % of control
T/C (endpoint: mean survival time, dose: 100.0 mg/kg/injection, schedule: Q01DX009 (ip), vehicle: saline): 97 % of control
T/C (endpoint: mean survival time, dose: 200.0 mg/kg/injection, schedule: Q01DX009 (ip), vehicle: saline): 103 % of control

OCC1OC(n2ncc3c(NCc4ccco4)ncnc32)C(O)C1O (stereo unspecified)
T/C (endpoint: mean survival time, dose: 25.0 mg/kg/injection, schedule: Q01DX009 (ip), vehicle: water): 95 % of control
T/C (endpoint: mean survival time, dose: 50.0 mg/kg/injection, schedule: Q01DX009 (ip), vehicle: water): 95 % of control
T/C (endpoint: mean survival time, dose: 100.0 mg/kg/injection, schedule: Q01DX009 (ip), vehicle: water): 100 % of control
T/C (endpoint: mean survival time, dose: 200.0 mg/kg/injection, schedule: Q01DX009 (ip), vehicle: water): 104 % of control
T/C (endpoint: mean survival time, dose: 400.0 mg/kg/injection, schedule: Q01DX009 (ip), vehicle: water): 106 % of control

CCOC(=O)C(Cl)c1ccc(OC)cc1 (stereo unspecified)
T/C (endpoint: mean survival time, dose: 100.0 mg/kg/injection, schedule: Q04DX003 (ip), vehicle: other): 96 % of control
T/C (endpoint: mean survival time, dose: 200.0 mg/kg/injection, schedule: Q04DX003 (ip), vehicle: other): 97 % of control
T/C (endpoint: mean survival time, dose: 400.0 mg/kg/injection, schedule: Q04DX003 (ip), vehicle: other): 96 % of control

CC(=O)OC(CC(=O)CC(O)(C(F)(F)F)C(F)(F)F)(C(F)(F)F)C(F)(F)F
T/C (endpoint: mean survival time, dose: 6.25 mg/kg/injection, schedule: Q04DX003 (ip), vehicle: saline): 95 % of control
T/C (endpoint: mean survival time, dose: 12.5 mg/kg/injection, schedule: Q04DX003 (ip), vehicle: saline): 98 % of control
T/C [3]: 96 % of control

O=C(OC(=O)c1cccc(-c2ccccc2)c1)c1cccc(-c2ccccc2)c1
T/C (endpoint: mean survival time, dose: 100.0 mg/kg/injection, schedule: Q01DX009 (ip), vehicle: Klucel (hydroxypropylcellulose) (HPC)): 109 % of control
T/C (endpoint: mean survival time, dose: 200.0 mg/kg/injection, schedule: Q01DX009 (ip), vehicle: Klucel (hydroxypropylcellulose) (HPC)): 100 % of control
T/C (endpoint: mean survival time, dose: 400.0 mg/kg/injection, schedule: Q01DX009 (ip), vehicle: Klucel (hydroxypropylcellulose) (HPC)): 97 % of control

O=C(Nc1ccc([N+](=O)[O-])cc1)OC1CCS(=O)(=O)C1 (stereo unspecified)
T/C (endpoint: mean survival time, dose: 75.0 mg/kg/injection, schedule: Q04DX003 (ip), vehicle: saline): 102 % of control
T/C (endpoint: mean survival time, dose: 150.0 mg/kg/injection, schedule: Q04DX003 (ip), vehicle: saline): 98 % of control
T/C (endpoint: mean survival time, dose: 300.0 mg/kg/injection, schedule: Q04DX003 (ip), vehicle: saline): 101 % of control

CSC(N)=Nc1ccc(C(=O)O)cc1
T/C [5]: 100 % of control
T/C [6]: 94 % of control
T/C [7]: 94 % of control

CN(C)N=Nc1c(F)cccc1F
T/C (endpoint: mean survival time, dose: 6.25 mg/kg/injection, schedule: Q01DX009 (ip), vehicle: other): 98 % of control
T/C (endpoint: mean survival time, dose: 12.5 mg/kg/injection, schedule: Q01DX009 (ip), vehicle: other): 113 % of control and 93 % of control
T/C (endpoint: mean survival time, dose: 12.5 mg/kg/injection, schedule: Q01DX009 (ip), vehicle: saline with Tween-80): 98 % of control
T/C (endpoint: mean survival time, dose: 25.0 mg/kg/injection, schedule: Q01DX009 (ip), vehicle: other): 117 % of control and 100 % of control
T/C (endpoint: mean survival time, dose: 25.0 mg/kg/injection, schedule: Q01DX009 (ip), vehicle: saline with Tween-80): 106 % of control
T/C (endpoint: mean survival time, dose: 50.0 mg/kg/injection, schedule: Q01DX009 (ip), vehicle: other): 91 % of control
T/C (endpoint: mean survival time, dose: 50.0 mg/kg/injection, schedule: Q01DX009 (ip), vehicle: saline with Tween-80): 120 % of control
T/C (endpoint: mean survival time, dose: 100.0 mg/kg/injection, schedule: Q01DX009 (ip), vehicle: other): 102 % of control and 104 % of control

O=C1CN(CCN2CC(=O)N(CN3CCOCC3)C(=O)C2)CC(=O)N1CN1CCOCC1
T/C (endpoint: median survival time, dose: 12.5 mg/kg/injection, schedule: Q01DX009 (ip), vehicle: water): 111 % of control
T/C (endpoint: median survival time, dose: 25.0 mg/kg/injection, schedule: Q01DX009 (ip), vehicle: water): 118 % of control
T/C (endpoint: median survival time, dose: 50.0 mg/kg/injection, schedule: Q01DX009 (ip), vehicle: water): 164 % of control
T/C (endpoint: median survival time, dose: 100.0 mg/kg/injection, schedule: Q01DX009 (ip), vehicle: water): 181 % of control and 188 % of control
T/C (endpoint: median survival time, dose: 200.0 mg/kg/injection, schedule: Q01DX009 (ip), vehicle: water): 97 % of control and 111 % of control

CC[n+]1c(-c2ccccc2)c2cc(N)ccc2c2ccc(N)cc21 (tested in a mixture with another compound)
T/C (endpoint: mean survival time, dose: 5.0 mg/kg/injection, schedule: Q01DX009 (ip), vehicle: water): 104 % of control
T/C (endpoint: mean survival time, dose: 10.0 mg/kg/injection, schedule: Q01DX009 (ip), vehicle: water): 104 % of control
T/C (endpoint: mean survival time, dose: 20.0 mg/kg/injection, schedule: Q01DX009 (ip), vehicle: water): 104 % of control
T/C (endpoint: mean survival time, dose: 40.0 mg/kg/injection, schedule: Q01DX009 (ip), vehicle: water): 102 % of control
T/C (endpoint: mean survival time, dose: 80.0 mg/kg/injection, schedule: Q01DX009 (ip), vehicle: water): 86 % of control

Oc1ccc(Sc2ccc(O)cc2O)c(O)c1
T/C [4]: 101 % of control
T/C (endpoint: mean survival time, dose: 200.0 mg/kg/injection, schedule: Q04DX003 (ip), vehicle: saline): 103 % of control
T/C (endpoint: mean survival time, dose: 400.0 mg/kg/injection, schedule: Q04DX003 (ip), vehicle: saline): 93 % of control

O=CC(O)CO (stereo unspecified)
T/C (endpoint: median survival time, dose: 129.6 mg/kg/injection, schedule: Q ##X015 (sc), vehicle: saline): 109 % of control
T/C (endpoint: median survival time, dose: 129.6 mg/kg/injection, schedule: Q## X015 (sc), vehicle: saline): 112 % of control
T/C (endpoint: median survival time, dose: 216.0 mg/kg/injection, schedule: Q ##X015 (sc), vehicle: saline): 108 % of control
T/C (endpoint: median survival time, dose: 216.0 mg/kg/injection, schedule: Q## X015 (sc), vehicle: saline): 112 % of control
T/C (endpoint: median survival time, dose: 360.0 mg/kg/injection, schedule: Q ##X015 (sc), vehicle: saline): 119 % of control
T/C (endpoint: median survival time, dose: 360.0 mg/kg/injection, schedule: Q## X015 (sc), vehicle: saline): 118 % of control
T/C (endpoint: median survival time, dose: 600.0 mg/kg/injection, schedule: Q ##X015 (sc), vehicle: saline): 110 % of control
T/C (endpoint: median survival time, dose: 600.0 mg/kg/injection, schedule: Q## X015 (sc), vehicle: saline): 112 % of control

CS(=O)(=O)OCC1OC(n2ccc(NC(=O)c3ccccc3)nc2=O)CC1OS(C)(=O)=O (stereo unspecified)
T/C (endpoint: median survival time, dose: 12.5 mg/kg/injection, schedule: Q01DX005 (ip), vehicle: saline with Tween-80): 108 % of control
T/C (endpoint: median survival time, dose: 25.0 mg/kg/injection, schedule: Q01DX005 (ip), vehicle: saline with Tween-80): 100 % of control
T/C (endpoint: median survival time, dose: 50.0 mg/kg/injection, schedule: Q01DX005 (ip), vehicle: saline with Tween-80): 107 % of control
T/C (endpoint: median survival time, dose: 100.0 mg/kg/injection, schedule: Q01DX005 (ip), vehicle: saline with Tween-80): 103 % of control
T/C (endpoint: median survival time, dose: 200.0 mg/kg/injection, schedule: Q01DX005 (ip), vehicle: saline with Tween-80): 97 % of control

COc1ccc(CCNC(=O)Cc2ccc3cc(OC)c(OC)cc3c2)cc1OC
T/C [1]: 91 % of control
T/C [5]: 95 % of control
T/C [2]: 89 % of control
T/C [6]: 100 % of control

CC1CC(C)SC(C(C)(C)C)S1 (stereo unspecified)
T/C (endpoint: mean survival time, dose: 12.5 mg/kg/injection, schedule: Q04DX002 (ip), vehicle: saline): 105 % of control
T/C (endpoint: mean survival time, dose: 25.0 mg/kg/injection, schedule: Q04DX002 (ip), vehicle: saline): 97 % of control
T/C (endpoint: mean survival time, dose: 50.0 mg/kg/injection, schedule: Q04DX002 (ip), vehicle: saline): 102 % of control

CC(C)N(C(=S)S)C(C)C
T/C [5]: 101 % of control
T/C [6]: 100 % of control
T/C [7]: 92 % of control
